Experimental data from PubChem BioAssay (NCI).
Values after ≈ are worked out from the molar mass of the structure shown.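 48-hour exposure; five concentrations; linearly interpolated endpoints. GI50: concentration for 50% inhibition of growth. TGI is the concentration that stops growth completely.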

How the values were obtained:
Assay in all cases: inhibition of tumour cell growth, NCI panel, 48 h
[1] = system: SK-MEL-28 melanoma
[2] = system: NCI-H460 lung
[3] = system: HCT-15 colon
[4] = system: TK-10 renal
[5] = system: HCC-2998 colon
[6] = system: SNB-75 CNS
[7] = system: HOP-92 NSCLC
[8] = system: KM12 colon
[9] = system: SF-268 CNS
[10] = system: RXF 393 renal
[11] = system: K-562 leukemia

For COC(=O)C(Cc1cn(C(C)n2cc(CC(NC(C)=O)C(=O)OC)c3ccccc32)c2ccccc12)NC(C)=O (centres undefined), the TGI [1] was over 100 µM, the TGI [2] was over 100 µM and the TGI [3] was over 100 µM. For the same molecule, the TGI [4] was over 100 µM, the TGI [5] was over 100 µM and the TGI [6] was 83.3 µM. The TGI [7] was over 100 µM, the TGI [8] was over 100 µM and the TGI [9] was over 100 µM.

O=c1oc2ccccc2c(O)c1Cc1ccc(Cc2c(O)c3ccccc3oc2=O)cc1 gave a TGI [10] of over 100 µM, a TGI [1] of over 100 µM and a TGI [2] of over 100 µM. It also gave a TGI [3] of over 100 µM, a TGI [4] of over 100 µM and a TGI [5] of over 100 µM. For the same molecule, the TGI [6] was over 100 µM, the TGI [11] was over 100 µM and the TGI [7] was over 100 µM. The TGI [9] was over 100 µM.

Work on O=C(O)c1nc2ccc(C(F)(F)F)cc2[nH]c1=O yielded a TGI [10] of over 100 µM, a TGI [1] of over 100 µM and a TGI [2] of over 100 µM. It also gave a TGI [3] of over 100 µM, a TGI [4] of over 100 µM and a TGI [5] of over 100 µM. The TGI [11] was over 100 µM, the TGI [7] was over 100 µM and the TGI [8] was over 100 µM. The TGI [9] was over 100 µM.

COC(=O)CC(=O)OSc1ccccc1 showed a TGI [10] of 25.3 µM, a TGI [2] of over 100 µM and a TGI [4] of over 100 µM. For the same molecule, the TGI [5] was 95 µM, the TGI [11] was over 100 µM and the TGI [7] was 67.9 µM. For the same molecule, the TGI [8] was over 100 µM.

Molecule CCOC(=O)c1csc(NC(=O)C(C)N2CCCC2)n1 (centres undefined) has a TGI [10] of over 100 µM, a TGI [1] of over 100 µM and a TGI [2] of over 100 µM. The TGI [3] was over 100 µM, the TGI [4] was over 100 µM and the TGI [5] was over 100 µM. It also gave a TGI [6] of over 100 µM, a TGI [11] of over 100 µM and a TGI [7] of over 100 µM. The TGI [8] was over 100 µM.

CSCC[C@@H](NC(=O)[C@H](CC(C)C)NC(=O)C(Cc1cnc[nH]1)NC(=O)CNC(=O)[C@@H](NC(=O)[C@H](C)NC(=O)[C@H](Cc1c[nH]c2ccccc12)NC(=O)[C@H](CCC(N)=O)NC(=O)[C@@H](N)CC(N)=O)C(C)C)C(N)=O (some centres undefined) gave a TGI [10] of over 100 µM, a TGI [1] of over 100 µM and a TGI [2] of over 100 µM. It also gave a TGI [3] of over 100 µM, a TGI [5] of over 100 µM and a TGI [6] of over 100 µM. For the same molecule, the TGI [11] was over 100 µM, the TGI [7] was over 100 µM and the TGI [8] was over 100 µM. The TGI [9] was over 100 µM.

CN(C)CCNC(=O)c1cccc2c1Nc1ccccc1S2 showed a TGI [10] of 23.6 µM, a TGI [1] of 27.7 µM and a TGI [2] of 25.7 µM. It also gave a TGI [3] of 31.4 µM, a TGI [5] of 27.2 µM and a TGI [6] of 21.3 µM. The TGI [11] was 36.2 µM, the TGI [7] was 8.96 µM and the TGI [8] was 26.4 µM. The TGI [9] was 31.7 µM.

Molecule O=C1NN(C2=NNC3(C(=O)N2)c2ccccc2-c2ccccc23)C(c2ccccc2)=N/C1=C/c1ccc(Cl)cc1 has a GI50 [10] of 56.9 µg/mL (≈ 104 µM), a TGI [10] of over 150 µg/mL and a GI50 [1] of 63 µg/mL (≈ 116 µM). It also gave a TGI [1] of over 150 µg/mL, a GI50 [2] of 48.7 µg/mL (≈ 89.3 µM) and a TGI [2] of over 150 µg/mL. It also gave a GI50 [3] of 54.1 µg/mL (≈ 99.3 µM), a TGI [3] of over 150 µg/mL and a GI50 [4] of 50.5 µg/mL (≈ 92.6 µM). For the same molecule, the TGI [4] was 132 µg/mL, the GI50 [6] was 57.2 µg/mL (≈ 105 µM) and the TGI [6] was over 150 µg/mL. For the same molecule, the GI50 [11] was 50.4 µg/mL (≈ 92.6 µM), the TGI [11] was over 150 µg/mL and the GI50 [8] was 33.4 µg/mL (≈ 61.3 µM). For the same molecule, the TGI [8] was 96.2 µg/mL, the GI50 [9] was 61 µg/mL (≈ 112 µM) and the TGI [9] was over 150 µg/mL.
